Data set [1] has as its system BGC-823. The experiment in a line: Antiproliferative activity against human BGC-823 cells assessed as reduction in cell optical density incubated for 48 hrs by MTT assay. The following applies: BGC-823, 48 h. The class given is functional, cell-based.
Data set [2] has as its system HeLa. The experiment in a line: Antiproliferative activity against human HeLa cells assessed as reduction in cell optical density incubated for 48 hrs by MTT assay. The class given is functional, cell-based. In general terms: Tetrazolium dyes change colour on reduction, which living cells bring about.
Data set [3] relates to MCF7. The experiment in a line: Antiproliferative activity against human MCF7 cells assessed as reduction in cell optical density incubated for 48 hrs by MTT assay. Type of data set: functional, cell-based. Particulars: MCF7, 48 h.
Data set [4] relates to HeLa. Description: Inhibition of colony formation in human HeLa cells assessed as reduction in colony forming unit count at 0.15 to 0.6 uM incubated for 24 hrs by crystal violet staining based analysis. The class given is functional, cell-based. Particulars: dose 0.15-0.6 µM.
Data set [5] relates to Ca-Ski. The experiment in a line: Inhibition of cell migration in human Ca Ski cells at 0.5 to 1 uM measured after 24 hrs by transwell migration assay. Type of data set: functional, cell-based. The following applies: dose 0.5-1 µM.
In data set [6] the test system is HeLa. The experiment in a line: Induction of morphological changes in human HeLa cells assessed as increase in appearance of round cells at 0.6 to 2.4 uM by microphotographic analysis. The class given is functional, cell-based. Particulars: dose 0.6-2.4 µM.
The subject of data set [7] is Ca-Ski. The experiment in a line: Induction of morphological changes in human Ca Ski cells assessed as increase in appearance of round cells at 0.5 to 2 uM by microphotographic analysis. The class given is functional, cell-based. Particulars: dose 0.5-2 µM.
The subject of data set [8] is HeLa. The experiment in a line: Induction of apoptosis in human HeLa cells assessed as viable cells at 0.6 uM incubated for 24 hrs by Annexin V-FITC/PI staining based flow cytometric analysis (reference value: 96.2 %). Particulars: read-out: Activity. The class given is functional. (In general: In flow cytometry, cells or beads pass a laser one at a time.)
Data set [9] deals with HeLa. The experiment in a line: Induction of apoptosis in human HeLa cells assessed as early apoptotic cells at 0.6 uM incubated for 24 hrs by Annexin V-FITC/PI staining based flow cytometric analysis (reference value: 0.97 %). Type of data set: functional.
Data set [10] concerns HeLa. The experiment in a line: Induction of apoptosis in human HeLa cells assessed as necrotic cells at 1.2 uM incubated for 24 hrs by Annexin V-FITC/PI staining based flow cytometric analysis (reference value: 1.88 %). The class given is functional.
In data set [11] the test system is HeLa. The experiment in a line: Induction of apoptosis in human HeLa cells assessed as late apoptotic cells at 0.6 uM preincubated with Z-VAD-FMK for 1 hrs followed by compound addition and measured after 24 hrs by Annexin V-FITC/PI staining based flow cytometric analysis (reference value: 1.02 %). Type of data set: functional.
Data set [12] relates to Ca-Ski. Description: Induction of apoptosis in human Ca Ski cells assessed as necrotic cells at 0.5 uM preincubated with Z-VAD-FMK for 1 hrs followed by compound addition and measured after 24 hrs by Annexin V-FITC/PI staining based flow cytometric analysis (reference value: 1.54 %). The class given is functional.
Data set [13] concerns Ca-Ski. The experiment in a line: Antiproliferative activity against Bax deficient human Ca Ski cells assessed as inhibition of cell viability incubated for 24 hrs by CCK8 assay. Type of data set: functional, cell-based.
For data set [14], the system named is HeLa. Description: Effect on TRFC protein expression level in human HeLa cells at 0.6 uM incubated for 24 hrs by Western blot analysis. The class given is functional, cell-based.
For data set [15], the system named is Ca-Ski. The experiment in a line: Effect on TRFC protein expression level in human Ca Ski cells at 0.5 uM incubated for 24 hrs by Western blot analysis. The class given is functional, cell-based. (A western blot detects proteins with antibodies after separation by electrophoresis.)
In data set [16] the test system is HeLa. Description: Induction of autophagy in human HeLa cells assessed as increase in LC3-II accumulation at 0.6 uM incubated for 3 to 48 hrs by Western blot analysis. Type of data set: functional, cell-based. The following applies: time 3-48 hrs.
In data set [17] the test system is HeLa. Description: Effect on apoptosis pathway related gene expression in human HeLa cells at 1.2 uM incubated for 24 hrs by GSVA enrichment analysis. The class given is functional, cell-based.
Data set [18] relates to HeLa. The experiment in a line: Upregulation of autophagy pathway related gene expression in human HeLa cells at 1.2 uM incubated for 24 hrs by heat-map analysis. Type of data set: functional, cell-based.
Data set [19] has as its system Ca-Ski. The experiment in a line: Antiproliferative activity against ATG5 deficient human Ca Ski cells assessed as inhibition of cell viability incubated for 24 hrs by CCK8 assay. Type of data set: functional, cell-based.
Data set [20] deals with HeLa. The experiment in a line: Induction of autophagy in ATG5 deficient human HeLa cells assessed as increase in LC3-II expression at 0.6 to 1.2 uM incubated for 24 hrs by Western blot analysis. Type of data set: functional, cell-based. Particulars: dose 0.6-1.2 µM.
Data set [21] in a line: Toxicity in female BALB/c mouse xenografted with human HeLa cells assessed as effect on ALT level at 4 to 8 mg/kg administered every four days and measured after 26 days. Type of data set: organism-based. Particulars: in vivo, 624 h, dose 4-8 mg/kg, time 26 day.

This is an account of results in ChEMBL document CHEMBL6115007, “Synthesis and in vitro and in vivo evaluation of novel bivalent quinolines as antitumor agents via targeting autophagy in cervical cancer” (Eur J Med Chem, 2025).

Calls of active or inactive are those of the source. The rule behind the calls is not given here.

Broadly, the IC50 is the point on the concentration scale where inhibition reaches its midpoint. On to `COc1cccc(Nc2ccnc3cc(OCCCCCOc4ccc5c(Nc6cccc(OC)c6)ccnc5c4)ccc23)c1`, for which the half-inhibitory concentration (IC50) in data set [1] came to 4.06 µM; in [2], 3.71 µM; in [3], 3.08 µM; in data set [13], 0.993 µM; in data set [19], 1.58 µM. The inhibition entry in data set [4] and in data set [5] was “Active” each time. The result in data set [6], in data set [7], in [16] and in data set [18] was Active. For the same compound, the viability at 0.6 µM in [8] came to 94.3%. The Activity is given as 0.8% in data set [9]; 1.47% in data set [10]; 2.8% in [11]; 1.4% in [12]; “Minimal_effect” in data set [17]; “Non-toxic” in data set [21]. Besides, the outcome in [14], in [15] and in [20] was inactive.
